Source: patent US20060204980A1, “Colorectal cancer therapies” (priority 2004, published 2006)

Key:
Assay type in all cases: cell-based
[1] = system: p53^+/+ HCT116 colorectal carcinoma cells; assay: Western blotting of p53 pathway proteins in treated p53+/+ HCT116 cells; details: for p21^Waf1/Cip1 expression (Western blot) / p53 expression (Western blot) / survivin expression (Western blot): p53+/+ HCT116; for p21^Waf1/Cip1 expression (Western blot) / p53 expression (Western blot): 6-24 hours
Procedure: (§1) Cells were collected and centrifuged at 3,000 rpm for 5 minutes at 4° C., and washed in PBS (pH 7.2). The cell pellet was solubilized in lysis buffer (20 mM Tris, pH 7.2, 0.5% deoxycholate, 1% Triton X-100, 0.1% SDS, 150 mM NaCl, 1 mM EDTA) containing proteases inhibitors (Complete, Roche Applied Science) for 30 min at 4° C. The lysate was cleared by centrifugation for 15 minutes, and protein concentration was evaluated using a Bio-Rad protein assay system (Bio-Rad Laboratories, Hercules, Calif.). Samples (30 μg) were separated by SDS-polyacrylamide gel, transferred to nylon membranes (Millipore), and incubated with primary antibodies to p53 (Oncogene Research Products, FL-393, Santa Cruz Biotechnology, Inc., Santa Cruz, Calif.), p21^Waf1/Cip1 (Oncogene Research Products), XIAP (BD Transduction Laboratories), survivin (NOVUS Biologicals, Littleton, Colo.), MDM2 (Santa Cruz Biotechnology, Inc.), p14^ARF (NOVUS Biologicals), caspase-3 (Cell Signaling Technology), cleaved caspase-3 (Cell Signaling Technology), β-catenin (BD Transduction Laboratories), cyclin B1 (GNS1, Santa Cruz Biotechnology, Inc.), GSK3β (Santa Cruz Biotechnology, Inc.), or β-sactin (Sigma) with detection of reactive bands by chemiluminescence (Amersham). Cells were analyzed for hypodiploid DNA content by propidium iodide staining and flow cytometry as described in O'Connor et al., Cancer Cell, 2:43-54 (2002). Chemicals whose source is not explicitly listed were or can be obtained from Sigma.
To explore the link between GSK3β inhibition and p53 modulation, in vivo, HCT116 cells were treated with Li, TDZD or SB216763, and analyzed cells by Western blotting. p53^+/+ or p53^−/− HCT116 cells were incubated with the following GSK3β inhibitors, LiCl (Sigma, 30 mM), thiadiazolidinone-8 (TDZD) (Calbiochem, 0-20 μM), or SB216763 (Sigma, 20 μM), cells were harvested after 6-24 hours, and samples were analyzed by Western blotting as described in Example 2. […]

p53^+/+ HCT116 cells = assay: Multiparametric flow cytometry of caspase-3/7 (DEVDase) activity and cell viability, p53+/+ HCT116; details: TDZD 20 μM, 48 hours; for caspase-dependent apoptosis (DEVDase activity and plasma membrane integrity): p53+/+ HCT116, LiCl 30 mM
Procedure: (§2) The functional consequences of GSK3β inhibition were explored. Source and maintenance of p53^+/+ and p53^−/− HCT116 colorectal carcinoma cells were as described in Example 2. […] Alternatively, cells were incubated with GSK3β inhibitors LiCl (30 mM) or TDZD (20 μM), harvested after 48 hours and analyzed for cell viability (propidium iodide, red channel) and active caspase-3/7 activity (green channel, […]®, from Chemicon International Inc., Temecula, Calif.), by multiparametric flow cytometry as reported previously in Kim et al., Lancet, 362:205-209 (2003).
(§3) To clarify the role of GSK3β inhibition in p53-dependent apoptosis, HCT116 cells were treated with TDZD or LiCl and monitored changes in cell death. […] See the two center column panels of FIG. 6C. […] See right hand column panels of FIG. 6C.

p53^−/− HCT116 cells = assay: Multiparametric flow cytometry of caspase-3/7 (DEVDase) activity and cell viability, p53-/- HCT116; details: TDZD 20 μM, 48 hours; for apoptosis induction (DEVDase activity and plasma membrane integrity): p53-/- HCT116, LiCl 30 mM
Procedure: as §2, §3

GSK3β = GSK3β (Homo sapiens, UniProt P49841); assay: Immunoprecipitation and GSK3β kinase assay using glycogen synthase-derived peptide substrate, from treated HCT116 cells; design: harvested after 6 or 12 hours, and immunoprecipitated with an antibody to GSK3β; endogenous in cells; host or cells: HCT116 (p53+/+) colorectal carcinoma cells; details: p53+/+ HCT116 cells; Purvalanol A 10 μM, LiCl 30 mM, TDZD 20 μM; 6 or 12 hours
Sequence of GSK3β (P49841 whole entry): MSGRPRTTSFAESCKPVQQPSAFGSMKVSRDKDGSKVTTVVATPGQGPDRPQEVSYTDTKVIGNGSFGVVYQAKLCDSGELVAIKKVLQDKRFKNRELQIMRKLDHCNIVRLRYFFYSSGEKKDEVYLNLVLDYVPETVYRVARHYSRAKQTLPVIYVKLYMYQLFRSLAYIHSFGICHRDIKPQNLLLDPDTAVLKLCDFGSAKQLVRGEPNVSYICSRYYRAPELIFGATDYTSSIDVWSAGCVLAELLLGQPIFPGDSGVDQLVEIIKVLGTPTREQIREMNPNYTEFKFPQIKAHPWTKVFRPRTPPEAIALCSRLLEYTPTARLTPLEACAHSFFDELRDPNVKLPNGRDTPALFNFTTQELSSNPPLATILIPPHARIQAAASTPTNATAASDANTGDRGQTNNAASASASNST
Procedure: Immune complexes were mixed with a synthetic peptide containing a GSK3β phosphorylation site derived from the sequence of glycogen synthase (Upstate Biotechnology) in the presence of 10 μCi of γ-^32P-ATP (Amersham Corp., Piscataway, N.J.), after 30 min incubation at 30° C., the reaction mixtures were centrifuged briefly, and 15 μl of the supernatant was spotted onto P81 phosphocellulose paper (Whatman Inc., Clifton, N.J.). The membrane was washed three times with 175 mM phosphoric acid, rinsed once in acetone, and dried. Changes in peptide phosphorylation under the various conditions tested were determined by scintillation counting. Data were analyzed using the unpaired t test on a Graphpad Prism software package for Windows (Graphpad Inc., San Diego, Calif.). A P value of 0.05 was considered as statistically significant.

[2] = system: p53^−/− HCT116 colorectal carcinoma cells; assay: Western blotting of p53 pathway proteins in treated p53-/- HCT116 cells
Procedure: as §1
To explore the link between GSK3β inhibition and p53 modulation, in vivo, HCT116 cells were treated with Li, TDZD or SB216763, and analyzed cells by Western blotting. p53^+/+ or p53^−/− HCT116 cells were incubated with the following GSK3β inhibitors, LiCl (Sigma, 30 mM), thiadiazolidinone-8 (TDZD) (Calbiochem, 0-20 μM), or SB216763 (Sigma, 20 μM), cells were harvested after 6-24 hours, and samples were analyzed by Western blotting as described in Example 2.

Compound	p21^Waf1/Cip1 expression (Western blot) [1]	p53 expression (Western blot) [1]	caspase-dependent apoptosis (DEVDase activity and plasma membrane integrity) (p53^+/+ HCT116 cells)	survivin expression (Western blot) [1]	apoptosis induction (DEVDase activity and plasma membrane integrity) (p53^−/− HCT116 cells)	GSK3β kinase activity (peptide phosphorylation) (GSK3β)	increase in fraction of apoptotic cells (p53^+/+ HCT116 cells; p53+/+ cultures) [fold]	MDM2 expression (Western blot) ([1]; HCT116 cells)	p14^ARF expression (Western blot) ([1]; HCT116 cells, relative to vehicle)	increase in fraction of apoptotic cells (p53^−/− HCT116 cells; p53-/- cells) [fold]	survivin expression (Western blot) [2]
Cn1cc(C2=C(c3ccc(Cl)cc3Cl)C(=O)NC2=O)c2ccccc21 [SB216763]	prominent upregulation	strong induction of p53									
O=C1Cc2c([nH]c3ccc([N+](=O)[O-])cc23)-c2ccccc2N1 [alsterpaullone]		elevation of p53 levels									
[Cl-].[Li+] [LiCl, lithium chloride]		elevation of p53 levels only at 24 hours after treatment	reproduced caspase-dependent apoptosis	time-dependent downregulation of survivin	considerably less effective at inducing apoptosis	suppressed GSK3β activity					
Cn1sc(=O)n(Cc2ccccc2)c1=O [TDZD, 4-Benzyl-2-methyl-1,2,4-thiadiazolidine-3,5-dione]	prominent upregulation	strong induction of p53	reproduced caspase-dependent apoptosis	time-dependent downregulation of survivin	considerably less effective at inducing apoptosis	suppressed GSK3β activity	~4.5	reduced expression	upregulation of p14^ARF	1.7	no changes in survivin expression
